Measurements published in ChEMBL document CHEMBL1201862, “PubChem BioAssay data set” (2004).
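The compound was tested at five concentrations on cells cultured in 96-well plates, with a 48-hour exposure period. GI50 marks 50% less growth.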 The source made the active and inactive calls. Cut-off read from the data, not from the text of the source: active = GI50 up to about 1.1 µM and inactive = higher.

Assays:
Assay in all cases: DTP human tumour cell line panel, 48 h
HCC 2998 = system: HCC 2998
A549 = system: A549
CCRF-CEM = system: CCRF-CEM
NCI-H226 = system: NCI-H226
NCI-H522 = system: NCI-H522
TK-10 = system: TK-10
SNB-75 = system: SNB-75
K562 = system: K562
UO-31 = system: UO-31
EKVX = system: EKVX
CAKI-1 = system: CAKI-1
RXF 393 = system: RXF 393
KM12 = system: KM12
SF-539 = system: SF-539
HCT-15 = system: HCT-15
ACHN = system: ACHN
HL-60 = system: HL-60
PC-3 = system: PC-3
NCI/ADR-RES = system: NCI/ADR-RES
DU-145 = system: DU-145

Compound	GI50 (HCC 2998)	GI50 (A549)	GI50 (CCRF-CEM)	GI50 (NCI-H226)	GI50 (NCI-H522)	GI50 (TK-10)	GI50 (SNB-75)	GI50 (K562)	GI50 (UO-31)	GI50 (EKVX)	GI50 (CAKI-1)	GI50 (RXF 393)	GI50 (KM12)	GI50 (SF-539)	GI50 (HCT-15) [µM]	GI50 (ACHN)	GI50 (HL-60)	GI50 (PC-3)	GI50 (NCI/ADR-RES)	GI50 (DU-145)
CCN(CC)CCOC(c1ccccc1)c1ccccc1.CCOC(=O)Nc1ccc(S(=O)(=O)OC)cc1.CCOC(=O)Nc1ccc(S(=O)(=O)OC)cc1.Nc1ccc(C(=O)O)c(O)c1	> 100 µM (inactive)	> 100 µM (inactive)	> 100 µM (inactive)	> 100 µM (inactive)	> 100 µM (inactive)	> 100 µM (inactive)	> 100 µM (inactive)	> 100 µM (inactive)	> 100 µM (inactive)	> 100 µM (inactive)	> 100 µM (inactive)	> 100 µM (inactive)	> 100 µM (inactive)	> 100 µM (inactive)	> 100	> 100 µM (inactive)	> 100 µM (inactive)			
COc1ccc(C(=O)c2c(C(C(=O)c3ccc(OC)cc3)C(=O)c3ccc(OC)cc3)n(C(=O)c3ccc(OC)cc3)c3ccccc23)cc1	> 100 µM (inactive)	> 100 µM (inactive)	> 100 µM (inactive)	> 100 µM (inactive)	> 100 µM (inactive)	> 100 µM (inactive)	> 100 µM (inactive)	> 100 µM (inactive)	> 100 µM (inactive)	> 100 µM (inactive)	> 100 µM (inactive)	> 100 µM (inactive)	> 100 µM (inactive)	> 100 µM (inactive)	> 100	> 100 µM (inactive)	> 100 µM (inactive)			
CC(=O)c1c2c(cc3c1CC1(C3)Cc3cc4c(c(C(C)=O)c3C1)CCCC4)CCCC2	> 100 µM (inactive)	> 100 µM (inactive)	7.19 µM (inactive)	> 100 µM (inactive)	74.6 µM (inactive)	> 100 µM (inactive)		20.1 µM (inactive)	0.104 µM (active)	> 100 µM (inactive)		> 100 µM (inactive)	28.7 µM (inactive)	> 100 µM (inactive)	51.5	27.9 µM (inactive)	15.8 µM (inactive)	21.4 µM (inactive)	> 100 µM (inactive)	
CC(=O)Oc1ccc(C)c2c1[C@H]1CC[C@]3(C)[C@@H](OC(C)=O)CC[C@H]3[C@@H]1CC2	18 µM (inactive)	20.5 µM (inactive)	21.9 µM (inactive)	21.8 µM (inactive)	17.7 µM (inactive)	26.5 µM (inactive)	24.9 µM (inactive)	23.4 µM (inactive)	39.3 µM (inactive)	15.5 µM (inactive)		19.1 µM (inactive)	18.6 µM (inactive)	19.6 µM (inactive)	17.8	16.2 µM (inactive)	20.7 µM (inactive)		18.2 µM (inactive)	26.9 µM (inactive)
COc1ccc(C2=NNC(c3cc4cc(Br)ccc4nc3Cl)C2)cc1 (stereo not given)	11.5 µM (inactive)		0.13 µM (active)	0.0107 µM (active)			0.0631 µM (active)	6.21 µM (inactive)	13.1 µM (inactive)	19.4 µM (inactive)	12.6 µM (inactive)		22.9 µM (inactive)			13.2 µM (inactive)	6.19 µM (inactive)	11.9 µM (inactive)		11.7 µM (inactive)
O=C1OC(CC(=O)c2ccc(Cl)c(Cl)c2)C(Cl)=C1Cl (stereo not given)	> 100 µM (inactive)	> 100 µM (inactive)	20.8 µM (inactive)	68.9 µM (inactive)	22.5 µM (inactive)	> 100 µM (inactive)	> 100 µM (inactive)	38.8 µM (inactive)	> 100 µM (inactive)	> 100 µM (inactive)	> 100 µM (inactive)	> 100 µM (inactive)	> 100 µM (inactive)	74.5 µM (inactive)	> 100	> 100 µM (inactive)	82 µM (inactive)			
NC1OC(COC(=O)c2ccccc2)C(O)C(OC(=O)c2ccccc2)C1OC(=O)c1ccccc1 (stereo not given)		19.1 µM (inactive)		20.8 µM (inactive)	23.9 µM (inactive)	61.9 µM (inactive)	18.6 µM (inactive)		33.5 µM (inactive)	21.3 µM (inactive)		16.3 µM (inactive)			32.7	19.3 µM (inactive)		19.7 µM (inactive)	33.3 µM (inactive)	40.1 µM (inactive)
Clc1cccc(-c2sc(-c3ccsc3)cc2Cc2ccsc2)c1	> 10 µM (inactive)	> 10 µM (inactive)	> 10 µM (inactive)			> 10 µM (inactive)	> 10 µM (inactive)	> 10 µM (inactive)		> 10 µM (inactive)	> 10 µM (inactive)	> 10 µM (inactive)	> 10 µM (inactive)		> 10		> 10 µM (inactive)	> 10 µM (inactive)		> 10 µM (inactive)
CCOC(=O)Cn1c2ccc(Br)cc2c2nc3ccccc3nc21		> 100 µM (inactive)	> 100 µM (inactive)	> 100 µM (inactive)		> 100 µM (inactive)	> 100 µM (inactive)	> 100 µM (inactive)	> 100 µM (inactive)		> 100 µM (inactive)	> 100 µM (inactive)	> 100 µM (inactive)			> 100 µM (inactive)		> 100 µM (inactive)	> 100 µM (inactive)	> 100 µM (inactive)
